Counter-ions that a name gives are not always drawn.
What was measured:
δOR = target: T1, δOR (Homo sapiens, UniProt P41143); experiment: Opioid receptor competitive binding test, δOR; details: compound at 10 μM; [3H]-labeled ligand; CHO cell membranes; ± SD of three measurements
T1 construct: expressed in transfected cells; host or cells: CHO cells
Method: (§1) CHO cells expressing p opioid receptor, δ opioid receptor and K opioid receptor are cultured in a 10 cm^2 Petri dish (F-12 medium+10% newborn bovine serum) for several days, and the culture solution is sucked after the cells grew to the bottom of the dish. 3 ml PBS/EDTA solution (0.1M NaCl, 0.01M NaH2PO4, 0.04% EDTA) is added for digestion for 3-5 minutes. The cells are blown with a straw to get fall off completely, collected in a 40 ml centrifuge tube, centrifuged at 5000 rpm for 5 minutes, and removed with the supernatant. The centrifuge tube is added with ice-cold homogenate (50 mM HEPES PH 7.4, 3 mM MgCl2, 1 mM EGTA). The solution and precipitate are transferred to homogenizer for homogenization; Then the homogenate is transferred into a centrifuge tube, centrifuged at 18000 rpm for 15 minutes, and centrifuged twice; the obtained precipitate is added with an appropriate amount of buffer solution of 50 mM Tris-HCl and pH 7.4, homogenized and sub-packaged in centrifuge tubes. The product is stored in a refrigerator at −70° C. for later use.
(§2) 20-30 μg expressed membrane receptor protein and [3H]-labeled ligand (1-2 nM) are added to the total binding tube, added with 1 μM of corresponding ligand to the corresponding nonspecific binding tube. Various screened opioid ligand drugs (see the drug compounds in Table 1 below) are added to the sample tube with 100 μL final volume. The sample is incubated at 30° C. for 30 minutes, and the reaction is terminated in ice water. The glass fiber filter paper gF/C (whatman) is used for negative pressure filtration on Millipore sample collector. The sample is eluted with 4 ml 50 mm tris-HCl (pH 7.4) for three times, dried with the filter paper, put in 0.5 ml Eppendorf tube and added with 0.5 ml lipophilic scintillation liquid. The radioactive intensity is measured with PERKIN ELMER PRI-CARB 2910 liquid scintillation counter with calculation of the inhibition rate. The experiment is repeated for more than three times, with three compound tubes in each group. Inhibition rate(or binding rate)=(total binding rate dpm−sample tube dpm)/(total binding tube dpm-nonspecific binding tube dpm)×100%
(§3) IC50 is calculated with Prism 5.0 software. The Ki value is calculated according to the following formula: Ki=IC50/(1^+[L]/Kd), wherein [L] is the concentration of the added labeled ligand, and Kd is the equilibrium dissociation parameter of the labeled ligand.

κOR = target: T2, κOR (Homo sapiens, UniProt P41145); experiment: Opioid receptor competitive binding test, κOR; details: compound at 10 μM; [3H]-labeled ligand; CHO cell membranes; ± SD of three measurements
T2 construct: expressed in transfected cells; host or cells: CHO cells
Method: as §1, §2, §3

Female Kunming mice = experiment: Hot plate analgesia test in mice; type: in vivo; details: intraperitoneal, 55° C. hot plate; for ED50: Mus musculus, ip
Method: Female Kunming mice weighing about 20 g are placed on a hot plate instrument preheated to 55° C., and the latency of licking hind feet or lifting hind feet is used as the pain threshold index. Animals are screened before the experiment, and animals with latency less than 5 s or more than 30 s are excluded. To prevent foot burns, the longest observation time is set to 60s. The basic pain threshold is the average of two measurements, and the interval between the two measurements is 5 minutes. The pain threshold of mice in each group is determined at 15 minutes, 30 minutes, 60 minutes and 120 minutes after intraperitoneal administration. The effective percentage of analgesia (% MPE) is calculated according to the following formula
[formula] According to the effective percentage of analgesia, the ED50 value is calculated by graphpad prism 5.0 software.

[1] = Metabolic stability in liver microsomes, rat; details: for half-life at 2 μM / microsomal CLint at 2 μM: rat, microsomes, pH 7.4
Method: (§4) The solution B is slowly dropped into solution A, and the pH is adjusted to 7.40±0.05.
(§5) • Control drug: 4 μL Verapamil solution (10 mM) is added with 96 μL DMSO and diluted to 400 μM; • Compound to be tested: 4 μL compound to be tested (10 mM) is added with 96 μL normal saline and diluted to 400 μM.
(§6) The microsomes are stored in the refrigerator at −80° C., thawed at room temperature after being taken out, and mixed gently.
(§7) […] PBS (100 mm, pH=7.4) solution is added to the negative sample. The solution is put into water bath at 37° C. and pre-incubated for 10 minutes; • B) After incubation, 2 μL reference drug or compound to be tested (400 μM) are added into each well to start the reaction.

[2] = Metabolic stability in liver microsomes, mouse; details: for half-life at 2 μM / microsomal CLint at 2 μM: mouse, microsomes, pH 7.4
Method: as §4, §5, §6, §7

CYP 2C9 = CYP 2C9 (Homo sapiens, UniProt P11712); experiment: Inhibition of cytochrome P450 enzyme in human liver microsomes, CYP 2C9
CYP 2D6 = CYP 2D6 (Homo sapiens, UniProt P10635); experiment: Inhibition of cytochrome P450 enzyme in human liver microsomes, CYP 2D6
CYP 2C19 = CYP 2C19 (Homo sapiens, UniProt P33261); experiment: Inhibition of cytochrome P450 enzyme in human liver microsomes, CYP 2C19
[3] = Rat liver microsomes 0.5 mg/mL, NADPH 1 mM, compound 2 μM
[4] = Mouse liver microsomes 0.5 mg/mL, NADPH 1 mM, compound 2 μM

## [2H]C([2H])([2H])Oc1cccc([C@]2(O)CCN(C(=O)Cc3cc(F)c(F)cc3F)C[C@H]2CN(C([2H])([2H])[2H])C([2H])([2H])[2H])c1 [II-11hydrochloride]
δOR
  δOR binding rate: 10.4 ± 1.1%
κOR
  κOR binding rate: 16.4 ± 2.3%
Female Kunming mice
  ED50: 0.64 mg/kg
[1]
  half-life at 2 μM: 6.46 min
  microsomal CLint at 2 μM: 747 µL/min/mg
[2]
  half-life at 2 μM: 6.01 min
  microsomal CLint at 2 μM: 700 µL/min/mg
CYP 2C9
  IC50: > 50 µM
CYP 2D6
  IC50: 12.8 µM
CYP 2C19
  IC50: > 50 µM

## [2H]C([2H])([2H])Oc1cccc([C@]2(O)CCN(S(=O)(=O)Cc3ccccc3)C[C@H]2CN(C([2H])([2H])[2H])C([2H])([2H])[2H])c1 [II-5hydrochloride]
δOR
  δOR binding rate: 12.9 ± 1.8%
κOR
  κOR binding rate: 15.8 ± 4.6%
Female Kunming mice
  ED50: 0.58 mg/kg
[1]
  half-life at 2 μM: 6.59 min
  microsomal CLint at 2 μM: 763 µL/min/mg
[2]
  half-life at 2 μM: 6.05 min
  microsomal CLint at 2 μM: 706 µL/min/mg
CYP 2C9
  IC50: > 50 µM
CYP 2D6
  IC50: 15.3 µM
CYP 2C19
  IC50: > 50 µM

## [2H]C([2H])([2H])N(C[C@@H]1CN(C(=O)Cc2cc(F)c(F)cc2F)CC[C@@]1(O)c1cccc(OC)c1)C([2H])([2H])[2H] [II-9hydrochloride]
δOR
  δOR binding rate: 12.8 ± 0.8%
κOR
  κOR binding rate: 17.2 ± 3.5%
Female Kunming mice
  ED50: 0.52 mg/kg
[1]
  half-life at 2 μM: 5.55 min
  microsomal CLint at 2 μM: 681 µL/min/mg
[2]
  half-life at 2 μM: 5.03 min
  microsomal CLint at 2 μM: 612 µL/min/mg
CYP 2C9
  IC50: > 50 µM
CYP 2D6
  IC50: 13.7 µM
CYP 2C19
  IC50: > 50 µM

## [2H]C([2H])([2H])N(C)C[C@@H]1CN(S(=O)(=O)Cc2ccccc2)CC[C@@]1(O)c1cccc(OC)c1 [II-1hydrochloride]
δOR
  δOR binding rate: 11.6 ± 2.1%
κOR
  κOR binding rate: 16.37 ± 1.6%
Female Kunming mice
  ED50: 0.52 mg/kg
[1]
  half-life at 2 μM: 5.63 min
  microsomal CLint at 2 μM: 701 µL/min/mg
[2]
  half-life at 2 μM: 5.19 min
  microsomal CLint at 2 μM: 659 µL/min/mg
CYP 2C9
  IC50: > 50 µM
CYP 2D6
  IC50: 13 µM
CYP 2C19
  IC50: > 50 µM

## COc1cccc([C@]2(O)CCN(S(=O)(=O)Cc3ccccc3)C[C@H]2CN(C)C)c1.Cl [Example 20 of CN201911076305.X, reference compound]
δOR
  δOR binding rate: 10.5 ± 3.7%
κOR
  κOR binding rate: 15.25 ± 1.56%
Female Kunming mice
  ED50, hot plate: 0.49 mg/kg
[1]; [3]
  CLint: 747.68 μL/min/mg protein
  t1/2: 1.85 min
[2]; [4]
  CLint: 1101.92 μL/min/mg protein
  t1/2: 1.26 min

## [2H]C([2H])([2H])N(C[C@@H]1CN(S(=O)(=O)Cc2ccccc2)CC[C@@]1(O)c1cccc(OC)c1)C([2H])([2H])[2H] [II-3hydrochloride]
δOR
  δOR binding rate: 12.3 ± 2.0%
κOR
  κOR binding rate: 15.3 ± 2.0%
Female Kunming mice
  ED50: 0.5 mg/kg
[1]
  half-life at 2 μM: 5.72 min
  microsomal CLint at 2 μM: 697 µL/min/mg
[2]
  half-life at 2 μM: 5.24 min
  microsomal CLint at 2 μM: 660 µL/min/mg
CYP 2C9
  IC50: > 50 µM
CYP 2D6
  IC50: 13.8 µM
CYP 2C19
  IC50: > 50 µM

## [2H]C([2H])([2H])N(C)C[C@@H]1CN(C(=O)Cc2cc(F)c(F)cc2F)CC[C@@]1(O)c1cccc(OC)c1 [II-7hydrochloride, 1-((3R,4S)-4-hydroxy-4-(3-methoxyphenyl)-3-(((methyl-d3)amino)methyl)-1-piperidinyl)-2(2,4,5-trifluorophenyl)ethyl-1-one]
δOR
  δOR binding rate: 10.6 ± 2.0%
κOR
  κOR binding rate: 16.6 ± 2.9%
Female Kunming mice
  ED50: 0.51 mg/kg
[1]
  half-life at 2 μM: 5.68 min
  microsomal CLint at 2 μM: 689 µL/min/mg
[2]
  half-life at 2 μM: 5.15 min
  microsomal CLint at 2 μM: 661 µL/min/mg
CYP 2C9
  IC50: > 50 µM
CYP 2D6
  IC50: 14.7 µM
CYP 2C19
  IC50: > 50 µM

Source: patent US12509421B2, “Preparation and application of deuterated 4-phenyl-4-piperidinols” (priority 2022, dated 2025)
